Test results from patent US20240408086A1, “USE OF LUVADAXISTAT FOR THE TREATMENT OF COGNITIVE IMPAIRMENT” (TAKEDA PHARMACEUTICAL COMPANY LIMITED, priority 2021, published 2024).
Where two headings read alike, the source gives them in different places.

Experiments:
Mouse = test: Novel object recognition (cognition); format: in vivo; parameters: key: a + sign means efficacious; a − sign means not efficacious
Excerpt: In Table 1, a + sign means efficacious, a − sign means not efficacious, and an empty cell indicates a dose was not tested.

[1] = system: adult patients with persistent negative symptoms of schizophrenia; format: in vivo, human; conditions: 50 mg, 125 mg, 500 mg once daily
[2] = system: adult patients with persistent negative symptoms of schizophrenia; format: in vivo, human; conditions: for SCoRS Interviewer Total Score, Difference from Placebo for Week 12, LS Mean (SE) / SCoRS Interviewer Total Score, Adjusted Change from Baseline to Week 12, LS Mean (SE): MMRM; for SCoRS Interviewer Total Score, Difference from Placebo for Week 12, LS Mean (SE) / SCoRS Interviewer Total Score, Adjusted Change from Baseline to Week 12, LS Mean (SE) / SCoRS Interviewer Total Score, Change from Baseline to Week 12, Mean (SD) / SCoRS Interviewer Total Score, Change from Baseline to Week 12, Median / SCoRS Interviewer Total Score, Week 12, Mean (SD) / SCoRS Interviewer Total Score, Week 12, Median: preliminary analysis
Excerpt: To assess changes in cognitive impairment associated with schizophrenia (CIAS), secondary endpoints included the 12-week change from baseline in the Brief Assessment of Cognition in Schizophrenia (BACS) composite score, a measure of cognition across multiple domains, and the Schizophrenia Cognition Rating Scale (SCORS) score, a measure of day-to-day cognitive functioning requiring input from an adult informant. Secondary endpoints were not corrected for multiplicity.
The SCORS is an interview-based measure of cognitive functioning that was developed to specifically assess aspects of cognitive functioning in participants with schizophrenia. The items assess the 7 cognitive domains of attention, memory, reasoning and problem solving, working memory, processing speed, language functions, and social cognition. The SCORS global total scores is the sum of the 20 items, and it varies from 20 to 80 with 20 being the best outcome and 80 being the worst.

[3] = system: adult patients with persistent negative symptoms of schizophrenia
Experimental: Additionally, eligible participants were receiving stable antipsychotic treatment at a 2-6 mg daily dose of risperidone equivalents, and were allowed to be treated with a second antipsychotic if it was used as a hypnotic at a subtherapeutic dose (subject to sponsor approval). […] To overcome potential confounding effects, those with depressive and extrapyramidal symptoms were excluded.
Dose selection for this study was based on target occupancy and elevation of D-serine.
The study comprised a 28-day screening period, a 14-day single-blinded placebo run-in period to prospectively evaluate drug adherence and BNSS score stability, and a 12-week double-blinded treatment period (FIG. 5). […] Demographics, baseline characteristics, and efficacy assessments were based on the full analysis set, which included randomized participants who received at least one dose of the study drug during the treatment period (Table 6). The safety analysis set included randomized participants who received at least one dose of the study drug.
Safety endpoints included assessment of treatment-emergent adverse events (TEAEs).

mouse hippocampus = test: Hippocampal long-term potentiation (LTP) after acute and sub-chronic oral dosing; format: in vivo, mice
Experimental: In this study, hippocampal synaptic plasticity was evaluated using a well-established long-term potentiation (LTP) paradigm after acute and sub-chronic (14 days) dosing with Compound (I).
Wild-type mice aged 5-6 weeks (total of 97; n=5-8 per condition) were given acute or sub-chronic (14-day) oral doses of Compound (I) (from 0.001 mg/kg to 10 mg/kg, p.o.) or vehicle (1% Tween 80 in 0.5% methylcellulose). Hippocampal slices were harvested after 5 hours. Cerebellum and blood plasma were also obtained to measure D-serine levels achieved in the experimental animals.
Electrophysiological recordings were obtained from a single hippocampal slice placed on the chamber and perfused with aCSF at a constant rate. Extracellular field excitatory postsynaptic potentials (fEPSPs) were recorded in the CA1 stratum radiatum using a glass micropipette filled with aCSF. fEPSPs were evoked by electrical stimulation of Schaffer collaterals/commissural pathway at 0.1 Hz with a glass stimulating electrode placed in the stratum radiatum.
To test the effect of Compound (I) on basal synaptic transmission, Input/Output […] curves were constructed at the beginning of the experiment. The slope of fEPSPs was measured and plotted against different intensities of stimulation (from 0 to 100 μA). Long-term potentiation (LTP) was induced by a theta burst stimulation protocol (10 bursts of 4 pulses at 100 Hz, with 200 ms between bursts) at baseline stimulation intensity. Following this conditioning stimulus, a 1-hour test period was recorded where responses were again elicited by a single stimulation every 10 seconds (0.1 Hz) at the same stimulus intensity.

[4] = 50 mg once daily, count (%) of N = 58
[5] = 125 mg once daily, count (%) of N = 56
[6] = 500 mg once daily, count (%) of N = 55

In the case of `O=c1[nH]nc(CCc2ccc(C(F)(F)F)cc2)cc1O` [Compound (I), luvadaxistat], the “Novel object recognition (cognition)” value (Mouse; 14-Day Once Daily (QD), 0.001 mg/kg) is reported as “−”, the “Novel object recognition (cognition)” value (Mouse; 14-Day Once Daily (QD), 0.003 mg/kg) is reported as “+” and the “Novel object recognition (cognition)” value (Mouse; 14-Day Once Daily (QD), 0.01 mg/kg) is reported as “+”. For the same compound, the “Novel object recognition (cognition)” value (Mouse; 14-Day Once Daily (QD), 0.03 mg/kg) was “+”, the “Novel object recognition (cognition)” value (Mouse; 14-Day Once Daily (QD), 0.1 mg/kg) was “+” and the “Novel object recognition (cognition)” value (Mouse; 14-Day Once Daily (QD), 0.3 mg/kg) was “−”. The “Novel object recognition (cognition)” value (Mouse; 14-Day Once Daily (QD), 1 mg/kg) was “−”, the “Novel object recognition (cognition)” value (Mouse; 14-Day Once Daily (QD), 3 mg/kg) was “−” and the “Novel object recognition (cognition)” value (Mouse; Single Dose, 0.1 mg/kg) was “−”. For the same compound, the “Novel object recognition (cognition)” value (Mouse; Single Dose, 0.3 mg/kg) was “+”, the “Novel object recognition (cognition)” value (Mouse; Single Dose, 1 mg/kg) was “+” and the “Novel object recognition (cognition)” value (Mouse; Single Dose, 3 mg/kg) was “+”. For the same compound, the “Novel object recognition (cognition)” value (Mouse; Single Dose, 10 mg/kg) was “+”, the “Negative symptoms as measured with the BNSS” value [1] was “no significant improvements” and the “SCoRS interviewer total score, effect size versus placebo” value ([2]; 50 mg once daily, 12 weeks, p=0.011, not corrected for multiplicity) was 0.4. For the same compound, the “SCoRS Interviewer Total Score, Difference from Placebo for Week 12, LS Mean (SE)” value (shortened to “SCoRS Interviewer Total Score, Difference … (SE)”) ([2]; 50 mg once daily, one-sided unadjusted p 0.007*) was −2.4 (0.94), the “SCoRS Interviewer Total Score, Adjusted Change from Baseline to Week 12, LS Mean (SE)” value ([2]; 50 mg once daily) was −3.7 (0.77) and the “SCoRS interviewer total score, 12-week LS mean change from baseline” value ([2]; 50 mg once daily, placebo −1.6) was −3.8. For the same compound, the “SCoRS Interviewer Total Score, Change from Baseline to Week 12, Mean (SD)” value (from here on “SCoRS Interviewer Total Score, Change … (SD)”) ([2]; 50 mg once daily) was −4.0 (5.93), the “SCoRS Interviewer Total Score, Change from Baseline to Week 12, Median” value (shortened to “SCoRS Interviewer Total Score, Change … Median”) ([2]; 50 mg once daily) was −3.0 and the “SCoRS Interviewer Total Score, Week 12, Mean (SD)” value ([2]; 50 mg once daily) was 35.5 (10.91). For the same compound, the “SCoRS Interviewer Total Score, Week 12, Median” value ([2]; 50 mg once daily) was 32.0, the “SCoRS Interviewer Total Score, Difference … (SE)” value ([2]; 125 mg once daily, one-sided unadjusted p 0.236) was −0.7 (0.96) and the “SCoRS Interviewer Total Score, Adjusted Change from Baseline to Week 12, LS Mean (SE)” value ([2]; 125 mg once daily) was −2.1 (0.77). For the same compound, the “SCoRS Interviewer Total Score, Change … (SD)” value ([2]; 125 mg once daily) was −2.1 (5.89), the “SCoRS Interviewer Total Score, Change … Median” value ([2]; 125 mg once daily) was −2.0 and the “SCoRS Interviewer Total Score, Week 12, Mean (SD)” value ([2]; 125 mg once daily) was 36.1 (9.69). For the same compound, the “SCoRS Interviewer Total Score, Week 12, Median” value ([2]; 125 mg once daily) was 36.5, the “SCoRS Interviewer Total Score, Difference … (SE)” value ([2]; 500 mg once daily, one-sided unadjusted p 0.449) was −0.1 (0.98) and the “SCoRS Interviewer Total Score, Adjusted Change from Baseline to Week 12, LS Mean (SE)” value ([2]; 500 mg once daily) was −1.5 (0.84). The “SCoRS Interviewer Total Score, Change … (SD)” value ([2]; 500 mg once daily) was −2.4 (5.34), the “SCoRS Interviewer Total Score, Change … Median” value ([2]; 500 mg once daily) was −2.0 and the “SCoRS Interviewer Total Score, Week 12, Mean (SD)” value ([2]; 500 mg once daily) was 39.4 (9.60). For the same compound, the “SCoRS Interviewer Total Score, Week 12, Median” value ([2]; 500 mg once daily) was 39.0, the “Frequent TEAEs: Headache” value [3, 4] was 0 and the “Frequent TEAEs: Increased weight” value [3, 4] was 2 (3.4). The “Frequent TEAEs: Insomnia” value [3, 4] was 0, the “Patients with Mild TEAEs” value [3, 4] was 10 (17.2) and the “Patients with Moderate TEAEs” value [3, 4] was 2 (3.4). For the same compound, the “Patients with Severe TEAEs” value [3, 4] was 1 (1.7), the “Patients with any TEAEs” value [3, 4] was 13 (22.4) and the Serious adverse events [3, 4] was 0. For the same compound, the “TEAEs leading to study discontinuation” value [3, 4] was 0, the “TEAEs related to study drug” value [3, 4] was 0 and the Deaths ([3]; 50 mg once daily, count of N = 58) was 0. The “Severe event of chronic cholecystitis, number of participants” value ([3]; 50 mg once daily, not considered drug related) was 1, the “Severe schizophrenia (drug-related serious TEAE), number of participants” value ([3]; 125 mg once daily) was “one” and the “Frequent TEAEs: Headache” value [3, 5] was 5 (8.9). The “Frequent TEAEs: Increased weight” value [3, 5] was 0, the “Frequent TEAEs: Insomnia” value [3, 5] was 2 (3.6) and the “Patients with Mild TEAEs” value [3, 5] was 13 (23.2). For the same compound, the “Patients with Moderate TEAEs” value [3, 5] was 3 (5.4), the “Patients with Severe TEAEs” value [3, 5] was 1 (1.8) and the “Patients with any TEAEs” value [3, 5] was 17 (30.4). For the same compound, the Serious adverse events [3, 5] was 1 (1.8), the “TEAEs leading to study discontinuation” value [3, 5] was 1 (1.8) and the “TEAEs related to study drug” value [3, 5] was 4 (7.1). For the same compound, the Deaths ([3]; 125 mg once daily, count of N = 56) was 0, the “Frequent TEAEs: Headache” value [3, 6] was 2 (3.6) and the “Frequent TEAEs: Increased weight” value [3, 6] was 0. For the same compound, the “Frequent TEAEs: Insomnia” value [3, 6] was 2 (3.6), the “Patients with Mild TEAEs” value [3, 6] was 8 (14.5) and the “Patients with Moderate TEAEs” value [3, 6] was 8 (14.5). The “Patients with Severe TEAEs” value [3, 6] was 0, the “Patients with any TEAEs” value [3, 6] was 16 (29.1) and the Serious adverse events [3, 6] was 0. For the same compound, the “TEAEs leading to study discontinuation” value [3, 6] was 1 (1.8), the “TEAEs related to study drug” value [3, 6] was 7 (12.7) and the Deaths ([3]; 500 mg once daily, count of N = 55) was 0. For the same compound, the “LTP in the mouse hippocampus” value (mouse hippocampus; single oral doses vs vehicle, one-way ANOVA) was “did not significantly affect LTP”, the “LTP in the mouse hippocampus” value (mouse hippocampus; sub-chronic (14-day) oral dose 0.001 mg/kg, p<0.05 vs vehicle) was “increased LTP” and the “LTP in the mouse hippocampus” value (mouse hippocampus; sub-chronic (14-day) oral dose 0.01 mg/kg, p<0.05 vs vehicle) was “increased LTP”. The “LTP in the mouse hippocampus” value (mouse hippocampus; sub-chronic (14-day) oral dose 0.1 mg/kg, p<0.05 vs vehicle) was “decreased LTP” and the “LTP in the mouse hippocampus” value (mouse hippocampus; sub-chronic (14-day) oral dose 10 mg/kg, p<0.05 vs vehicle) was “decreased LTP”.
